The record followed here is patent publication US10344276B2, “Diagnostic and treatment for chronic and acute phase myeloid leukemia” (Duke University, priority 2009, dated 2019).

Series [1] relates to blast crisis CML (AML) cells. Briefly: Colony forming assay in methylcellulose media after Msi2 shRNA delivery. It counts as cell-based, mouse. On the procedure: Lineage negative, NUP98-HOXA9-YFP positive cells from AML were sorted and infected retrovirally with either Vector-IRES-GFP or Numb-IRES-GFP. After 48 hours of infection, cells were sorted and serially plated on complete methylcellulose medium (Methocult GF M3434 from StemCell Technologies).
(§1) To determine if inhibiting Msi2 could impact the growth of established CML, and to rule out the possibility that the reduced incidence of leukemia in Gt mutants was due to developmental defects and examine if Msi2 knockdown affects AML maintenance, Msi expression was targeted using an alternate shRNA approach. A lineage-negative population was sorted from full blown AML cells, which contains AML stem cells. Lin− cells from NUP98-HOXA9/BCR-ABL-induced blast crisis leukemias were infected with either an shRNA retrovirus targeting Msi2 (shMsi; SEQ ID NO: 9) or firefly luciferase (shLuc; SEQ ID NO: 10) as a negative control and resorted, and Msi2 expression was analyzed by realtime RT-PCR. […] Error bars represent s.e.m. of triplicate PCRs (**p<0.01).
As a control, shRNA against LacZ was used. Error bars represent s.e.m. of triplicate PCRs (**p<0.01). […] Error bars represent s.e.m. of triplicate assay wells (**p<0.01). […] Error bars represent s.e.m. of triplicate PCRs (**p<0.01).

In another series the test system is Msi2 transcript. The series can be described thus: Msi2 knockdown measured by realtime RT-PCR. It counts as cell-based, mouse. Particulars: Lin− cells from NUP98-HOXA9/BCR-ABL blast crisis leukemias; compared with shLuc control. On the procedure: RNA was isolated using RNAqueous-Micro (Ambion), levels were equalized, and RNA was converted to cDNA using Superscript II reverse transcriptase (Invitrogen). Quantitative real time PCRs were performed using an iCycler (BioRad) by mixing cDNAs, iQ SYBR Green Supermix (BioRad) and gene specific primers. Results were normalized to the level of beta-2-microglobulin (B2m). Primer sequences are as follows: Numb-F, […] (SEQ ID NO: 1); Numb-R, […] (SEQ ID NO: 2); Msi1-F, […] (SEQ ID NO: 3); Msi1-R, […] (SEQ ID NO: 4); Msi2-F, […] (SEQ ID NO: 5); Msi2-R, […] (SEQ ID NO: 6); B2m-F, […] (SEQ ID NO: 7); B2m-R, […] (SEQ ID NO: 8).
as §1

The next series has as its system blast crisis CML / AML. Briefly: Transplantation of shRNA-infected blast crisis CML/AML cells into irradiated mice. It counts as in vivo. The source says: Mouse models of CML were generated by transducing bone marrow stem and progenitor cells with retroviruses carrying BCR-ABL (chronic phase), or BCR-ABL and NUP98-HOXA9 (blast crisis phase) and transplanted into irradiated recipient mice. The development of CML was confirmed by flow cytometry and histopathology. Transgenic Notch reporter (TNR), Rag1−/−, and C57BL6/J were used as transplant donors, and C57Bl6/J CD45.1 and CD1 mice were used as transplant recipients. All mice were 8-12 weeks of age. Mice were bred and maintained on acidified water after transplantation in the animal care facility at Duke University Medical Center. All live animal experiments were performed according to protocols approved by the Duke University Institutional Animal Care and Use Committee. For Msi2 knockdown experiments, lineage negative blast crisis CML cells were infected with Msi2 or control Luciferase shRNA retroviral constructs and leukemia incidence monitored.
Bone marrow c-Kit+ or KLS cells from C57BL6/J or TNR mice were enriched and cultured overnight in X-vivo15 with 10% FBS, 50 μM 2-mercaptoethanol, 100 ng/mL SCF, and 20 ng/mL TPO in a 96 well U-bottom plate or 6 well plate. Subsequently, cells were infected with MSCV-BCR-ABL-IRES-YFP (or CFP) to generate CML, or MSCV-BCR-ABL-IRES-YFP (or CFP) and MSCV-NUP98-HOXA9-IRES-YFP (or NGFR) to generate AML. Cells were harvested 48 hours after infection and transplanted retro-orbitally into groups of 4-7 recipient mice. Recipients were lethally irradiated (10 Gy) for CML, and sublethally irradiated (7 Gy) for AML. For Numb overexpression, cells were infected with either MSCV-Numb-IRES-GFP (or hCD2) or MSCV-IRES-GFP (or hCD2) along with MSCV-BCR-ABL-IRES-YFP (or CFP) and MSCV-NUP98-HOXA9-IRES-NGFR (or YFP) and 20,000 to 100,000 sorted infected cells were transplanted per mouse. For secondary transplantation, cells from primary transplanted mice were sorted for either MSCV-Numb-IRES-GFP and MSCV-NUP98-HOXA9-YFP or MSCV-IRES-GFP and MSCV-NUP98-HOXA9-YFP, and 7,000 to 8,000 cells were transplanted per mouse. For ICN experiments, cells were infected with MSCV-ICN-IRES-CFP and MSCV-BCR-ABL-GFP, MSCV-ICN-IRES-CFP and MSCV-IRES-GFP, or MSCV-BCR-ABL-IRES-GFP and MSCV-IRES-CFP, and 10,000 to 20,000 KLS-derived or 200,000 to 500,000 c-kit+-derived sorted cells were transplanted per mouse. For the TNR mouse model, cells were infected with MSCV-BCR-ABL-IRES-YFP (or CFP) to generate CML or MSCV-BCR-ABL-IRES-YFP (or CFP) and MSCV-NUP98-HOXA9-IRES-NGFR to generate AML. 10,000 to 80,000 unsorted cells were transplanted per mouse. After transplantation, recipient mice were subsequently maintained on antibiotic water (sulfamethoxazole and trimethoprim) and evaluated daily for signs of morbidity, weight loss, failure to thrive, and splenomegaly. Premorbid animals were sacrificed by CO2 asphyxiation followed by cervical dislocation. Subsequently relevant tissues were harvested and analyzed by flow cytometry and histopathology.
Data shown is representative of two to three independent experiments.
The impact of Msi2 loss in AML propagation in vivo was also tested. Lin-negative cells from full blown AML were transduced either with an Msi2 shRNA retrovirus or luciferase shRNA virus, and the cells were transplanted into sublethally-irradiated mice. 11 of 13 mice transplanted with control knockdown AML became sick by 1 month post transplant.
Serial transplants were also done to test the presence of leukemia-initiating ability of control and Msi2 knockdown AML cells from the mice who suffered from leukemia.

Turning to “shMsi: shRNA retrovirus targeting Msi2, SEQ ID NO: 9, 5′-CCCAGATAGCCTTAGAGACTAT-3′”, in series [1] (established blast crisis CML cells, vs control shRNA), the “colony growth in vitro” value is “reduced colony growth in vitro”. In addition, the “reduction in the number of colonies formed” value in series [1] (methylcellulose media, Msi2 knockdown AML cells) is recorded as 50-70%. Also, in the series on Msi2 transcript, the “reduction in Msi2 transcript levels” value is listed as 75-90%. In the series with blast crisis CML / AML (3000 or 10,000 cells transplanted), the “AML incidence in serial transplants” value is reported as “loss in AML incidence”. Also, in the series on blast crisis CML / AML (Lin-negative AML cells transduced, sublethally irradiated mice, 11 of 13 control mice sick by 1 month), the “mice surviving beyond 1 month” value is recorded as “more than half”. Also, the “differentiation of leukemias that occurred” value with blast crisis CML / AML (Wright's stain of leukemic cells, primary transplant) was “more differentiated”. Further, the “ability to propagate disease (mice succumbing)” value with blast crisis CML / AML (mice transplanted with Lin− cells from primary shRNA expressing leukemias, control 87%) came out at 25%. Further, the “disease incidence in vivo (survival curve)” value with blast crisis CML / AML (primary transplant of established blast crisis CML cells, vs shLuc) is “reduced disease incidence in vivo”. The “transplanted leukemic cells in peripheral blood of surviving mice” value with blast crisis CML / AML (surviving mice) is recorded as “no detectable levels of transplanted leukemic cells”.
